Literature values in patent publication US20130078304A1, “CONTROLLED RELEASE FORMULATION FOR TREATING SLEEP DISORDERS” (TAIWAN BIOTECH CO., LTD., priority 2011, published 2013).

Key:
[1] = target: T1, benzodiazepine (BZ1) receptors (Homo sapiens, UniProt P14867+P18507)
T1 sequence (P14867 28-456): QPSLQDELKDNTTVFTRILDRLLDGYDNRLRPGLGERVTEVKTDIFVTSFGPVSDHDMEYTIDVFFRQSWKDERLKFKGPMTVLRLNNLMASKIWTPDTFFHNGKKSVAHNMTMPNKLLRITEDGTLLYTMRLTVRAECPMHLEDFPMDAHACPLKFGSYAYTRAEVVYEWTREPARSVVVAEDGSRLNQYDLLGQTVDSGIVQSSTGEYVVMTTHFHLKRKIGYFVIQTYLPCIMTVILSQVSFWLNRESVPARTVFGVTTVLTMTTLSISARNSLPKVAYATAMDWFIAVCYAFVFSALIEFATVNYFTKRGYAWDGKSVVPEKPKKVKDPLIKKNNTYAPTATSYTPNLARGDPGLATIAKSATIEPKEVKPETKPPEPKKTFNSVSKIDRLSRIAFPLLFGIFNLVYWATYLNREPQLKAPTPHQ
T1 sequence (P18507 40-467 limits assumed): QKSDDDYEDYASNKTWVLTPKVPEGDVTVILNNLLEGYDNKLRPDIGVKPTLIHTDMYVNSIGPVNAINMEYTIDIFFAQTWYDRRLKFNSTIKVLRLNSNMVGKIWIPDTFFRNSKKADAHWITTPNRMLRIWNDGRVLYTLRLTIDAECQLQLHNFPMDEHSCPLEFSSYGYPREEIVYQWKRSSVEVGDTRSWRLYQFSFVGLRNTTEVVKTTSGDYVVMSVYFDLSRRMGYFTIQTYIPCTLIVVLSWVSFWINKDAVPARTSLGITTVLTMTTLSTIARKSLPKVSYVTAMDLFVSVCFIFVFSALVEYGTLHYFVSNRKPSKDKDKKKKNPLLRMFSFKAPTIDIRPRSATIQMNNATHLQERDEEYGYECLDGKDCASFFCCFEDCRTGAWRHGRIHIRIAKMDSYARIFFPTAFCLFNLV
T1 sequence (P47870 25-512 partner limits assumed): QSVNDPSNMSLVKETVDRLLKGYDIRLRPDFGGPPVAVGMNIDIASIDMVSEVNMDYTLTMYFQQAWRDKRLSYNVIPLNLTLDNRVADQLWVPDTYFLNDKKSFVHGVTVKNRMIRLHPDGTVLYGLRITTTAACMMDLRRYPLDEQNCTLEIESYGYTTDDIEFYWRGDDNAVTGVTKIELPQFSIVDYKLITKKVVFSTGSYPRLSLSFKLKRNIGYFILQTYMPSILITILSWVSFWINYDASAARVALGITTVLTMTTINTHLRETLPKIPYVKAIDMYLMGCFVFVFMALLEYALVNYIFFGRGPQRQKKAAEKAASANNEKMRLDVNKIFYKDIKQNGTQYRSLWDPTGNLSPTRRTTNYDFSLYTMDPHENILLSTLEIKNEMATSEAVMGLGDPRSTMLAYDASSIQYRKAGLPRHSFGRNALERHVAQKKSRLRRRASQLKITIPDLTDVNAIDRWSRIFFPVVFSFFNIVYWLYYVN

## CCN(C(C)=O)c1cccc(-c2ccnc3c(C#N)cnn23)c1 [Zaleplon, N-[3-(3-cyanopyrazolo-[1,5-a]-pyrimidin-7-yl)-phenyl]-N-ethyl acetamide]
[1]
  binding to the BZ1 receptor: more weakly bound to the receptor than is Zolpidem
other
  solubility in aqueous media: poorly soluble
